Reference: patent US20080317700A1 (priority 2006, published 2008)

Legend:
Solubility (qualitative) = assay type: physicochemical
[1] = test system: cyanobacteria Synechococcus 7002; test: Liquid culture growth inhibition (optical density), salt water cyanobacteria; assay type: cell-based; details: Synechococcus 7002, residual salt control; untreated control 0.72
Protocol: Strains of green algae, cyanobacteria and E. Coli were used as test organisms. The green algae CD 1 Red and cyanobacteria Synechocystos 6803 were obtained from the collection of Prof. George Bullerjahn. Salt water strain of cyanobacteria Synechococcus 7002 was obtained from the collection of Prof. Michael McKay. E Coli DH 5α was obtained from Invitrogen Inc.
Green algae and cyanobacteria were propagated photoautotrophically in 250 mL Erlenmeyer flasks containing 100 mL of liquid BG-11 culture medium (see Supporting Information). The cultures were kept on a rotating shaker (100 rpm) at 25° C. for 4 days and continuously illuminated with cool-white fluorescent light with a constant light intensity of 5000 lux. The grown culture medium was sterilized in an autoclave at 121° C. and 1.05 kg cm^−2 pressure for 20 min. For the cell experiments, 20 mL aliquots of the BG-11 medium containing the green algal ([cells]initial=5.9×10^7 mL^−1) or cyanobacteria cells ([cells]initial=1.7×10^9 mL^−1) were placed in sterile 50 mL Erlenmeyer flasks. CD 1 Red, Synechocystos 6803 and Synechococcus 7002 were then treated with an aliquot of a stock herbicide solution to bring the final herbicide concentration to 1 mM and incubated for 7 days on a rotator shaker (100 rpm) at 25° C. and continuous light intensity of 5000 lux. Cell counts were correlated with the absorbance and measured as a function of time using a Spectronic 20 Genesis spectrophotometer. As previously reported by Ma et al., 5 the optimal wavelength for monitoring culture growth is 680 nm. Experiments for each herbicide were repeated three times. Control and treated cultures were grown under the same conditions of temperature, photoperiod, and agitation. In each experiment, the inhibition of cell growth in treated cultures was monitored spectrophotometrically and compared to the growth in control samples.

green algae CD 1 Red = test: organism not typed; assay type: cell-based; details: 120 h; CD1 Red, herbicide concentration 300 mM, 5 days; read-out: Average radii of the inhibition zones
Protocol: After phototrophical propagation during the 5 days under cool fluorescence light (intensity 5000 lux), the average radii of inhibition zones were measured. Water soaked filter paper circles were used as controls. Experiments for each herbicide concentration were repeated 3 times.

Structure (SMILES): C=C(C)C(=O)N(CC(=O)O)CP(=O)(O)O [MA, N-Methacryloyl-N-(phosphonomethyl)glycine]
- Solubility in organic solvents (Solubility (qualitative)): poorly soluble in most organic solvents
- Solubility in water (Solubility (qualitative)): soluble in water

Structure (SMILES): [Cl-].[Na+] [NaCl, sodium chloride]
- Optical Density at 680 nm after 7 days of media growth, NaCl control experiment [1]: (0.75 NaCl)

Structure (SMILES): C=CC(N)=O [acrylamide]
- zone of inhibition at 300000 µM (green algae CD 1 Red): 7.5 mm
